Earlier results, collected in paper PMC10323144, “Garbage in, garbage out: how reliable training data improved a virtual screening approach against SARS-CoV-2 MPro” (Frontiers in Pharmacology, 2023).
Numbered stars: 1 amine (or outer) side, 2 acyl side, 3 side chain; on linkers, the order of the positions; unused ones are H or OH. Bridge positions count the residues as written; N and C are the ends. Square brackets hold non-standard residues; d marks the D form. Peptide text beside a SMILES is read from it. * marks the point of attachment. hTyr(3S-OH,4S-OH,3'-OSO3H) = N[C@H](C(=O)O)[C@H](O)[C@@H](O)c1ccc(O)c(OS(=O)(=O)O)c1; Orn(4R-OH,5R-OH) = O=C([C@H](C[C@@H](O)[C@@H](O)N[*:3])N[*:1])[*:2]; Pro(3S-OH,4S-Me) = C[C@H]1CN[C@H](C(=O)O)[C@H]1O; X1 = CCCCCOc1ccc(-c2cc(-c3ccc(C(=O)*)cc3)no2)cc1; Gln(3R-OH) = NC(=O)C[C@@H](O)[C@H](N)C(=O)O; Hyp = O=C(O)[C@@H]1C[C@@H](O)CN1; Cbz = O=C(OCc1ccccc1)*; Nva = CCC[CH](N)C(=O)O

Test system: MPro
Details: compiled from peer-reviewed sources (287 compounds) ref the 18 original articles; cited from earlier work

Structure (SMILES)	Class (MPro activity class)
CCOC(=O)c1nc(S(C)(=O)=O)ncc1Cl [LON-WEI-ff7b210a-5]	1 (Compounds with IC50 < 10 µM or with a percentage of enzyme inhibition >50% at 10 µM were labelled as ACTIVE)
O=C(O)c1nn(Cc2ccc(Cl)cc2Cl)c2ccccc12 [LONIDAMINE]	0 (compounds with IC50 > 20 μM, percentage inhibition <80% at 20 µM or 50 μM, or percentage enzyme inhibition <50% at 10 µM were labelled as INACTIVE)
CC(NC(=O)C(O)c1cc(F)cc(F)c1)C(=O)NC1C(=O)N(C)c2ccccc2-c2ccccc21 (centres unmarked) [LY411575]	0 (compounds with IC50 > 20 μM, percentage inhibition <80% at 20 µM or 50 μM, or percentage enzyme inhibition <50% at 10 µM were labelled as INACTIVE)
C[C@@]1(c2cc(-c3cncnc3)c(F)cc2F)CCSC(N)=N1 [LY2811376]	0 (compounds with IC50 > 20 μM, percentage inhibition <80% at 20 µM or 50 μM, or percentage enzyme inhibition <50% at 10 µM were labelled as INACTIVE)
CC(=O)N[C@@H](CC(C)C)C(=O)N[C@@H](CC(C)C)C(=O)N[C@H](C=O)CCCNC(=N)N [Leupeptin]	0 (compounds with IC50 > 20 μM, percentage inhibition <80% at 20 µM or 50 μM, or percentage enzyme inhibition <50% at 10 µM were labelled as INACTIVE)
CC#CCn1c(N2CCCC(N)C2)nc2c1c(=O)n(Cc1nc(C)c3ccccc3n1)c(=O)n2C (centres unmarked) [Linafliptin]	0 (compounds with IC50 > 20 μM, percentage inhibition <80% at 20 µM or 50 μM, or percentage enzyme inhibition <50% at 10 µM were labelled as INACTIVE)
COC(=O)C1=CO[C@@H](O[C@@H]2O[C@H](CO)[C@@H](O)[C@H](O)[C@H]2O)[C@@H]2[C@@H](C)[C@@H](O)C[C@H]12 [Loganin]	0 (compounds with IC50 > 20 μM, percentage inhibition <80% at 20 µM or 50 μM, or percentage enzyme inhibition <50% at 10 µM were labelled as INACTIVE)
CC(C)(C)C#Cc1cc(N(C(=O)[C@H]2CC[C@H](C)CC2)[C@H]2CC[C@H](O)CC2)c(C(=O)O)s1 [Lomibuvir]	0 (compounds with IC50 > 20 μM, percentage inhibition <80% at 20 µM or 50 μM, or percentage enzyme inhibition <50% at 10 µM were labelled as INACTIVE)
CC(C)CCNC(=O)C(CC(C)C)NC(=O)C1OC1C(=O)O (centres unmarked) [Loxistatin Acid]	0 (compounds with IC50 > 20 μM, percentage inhibition <80% at 20 µM or 50 μM, or percentage enzyme inhibition <50% at 10 µM were labelled as INACTIVE)
O=c1cc(-c2ccc(O)c(O)c2)oc2cc(O[C@@H]3O[C@H](CO)[C@@H](O)[C@H](O)[C@H]3O)cc(O)c12 [Luteoloside]	0 (compounds with IC50 > 20 μM, percentage inhibition <80% at 20 µM or 50 μM, or percentage enzyme inhibition <50% at 10 µM were labelled as INACTIVE)
O=C(CCl)N1CCN(S(=O)(=O)C2=CC[SH]=C2)CC1 [MAK-UNK-d4768348-1]	1 (Compounds with IC50 < 10 µM or with a percentage of enzyme inhibition >50% at 10 µM were labelled as ACTIVE)
COc1ccc(C2CC(c3cccs3)=NN2C(=O)CCl)cc1OC (centres unmarked) [MAT-POS-916a2c5a-1]	1 (Compounds with IC50 < 10 µM or with a percentage of enzyme inhibition >50% at 10 µM were labelled as ACTIVE)
COc1ccccc1OCCNC(=O)c1cc(=O)[nH]c2ccccc12 [MAT-POS-916a2c5a-2]	1 (Compounds with IC50 < 10 µM or with a percentage of enzyme inhibition >50% at 10 µM were labelled as ACTIVE)
Cc1cc(C)c(C)c(S(=O)(=O)N2CCN(C(=O)c3cc(=O)[nH]c4ccccc34)CC2)c1C [MAT-POS-916a2c5a-3]	1 (Compounds with IC50 < 10 µM or with a percentage of enzyme inhibition >50% at 10 µM were labelled as ACTIVE)
O=C(CCl)N1CCN(S(=O)(=O)c2ccsc2)CC1 [MAT-POS-ee51dedd-2]	1 (Compounds with IC50 < 10 µM or with a percentage of enzyme inhibition >50% at 10 µM were labelled as ACTIVE)
CC1CN(Cc2cccc(Cl)c2)CCN1C(=O)CCl (centres unmarked) [MED-COV-4280ac29-13]	1 (Compounds with IC50 < 10 µM or with a percentage of enzyme inhibition >50% at 10 µM were labelled as ACTIVE)
O=C(CCl)N1CCN(Cc2cccc(Cl)c2)CC1 [MED-COV-4280ac29-15]	1 (Compounds with IC50 < 10 µM or with a percentage of enzyme inhibition >50% at 10 µM were labelled as ACTIVE)
COc1ccc(C2CC(c3ccccc3)=NN2C(=O)CCl)cc1OC (centres unmarked) [MED-COV-4280ac29-30]	1 (Compounds with IC50 < 10 µM or with a percentage of enzyme inhibition >50% at 10 µM were labelled as ACTIVE)
O=C(CCl)N1CCN(Cc2cccc3ccccc23)CC1 [MED-COV-4280ac29-31]	1 (Compounds with IC50 < 10 µM or with a percentage of enzyme inhibition >50% at 10 µM were labelled as ACTIVE)

Structure (SMILES)	Class (MPro activity class)
COCc1cc(Cl)cc(CN2CCN(C(=O)CCl)CC2)c1 [MED-COV-4280ac29-33]	1 (Compounds with IC50 < 10 µM or with a percentage of enzyme inhibition >50% at 10 µM were labelled as ACTIVE)
COCCc1ccc(Cl)cc1CN1CCN(C(=O)CCl)CC1 [MED-COV-4280ac29-37]	1 (Compounds with IC50 < 10 µM or with a percentage of enzyme inhibition >50% at 10 µM were labelled as ACTIVE)
CCCC(C=O)NC(=O)C(CC(C)C)NC(=O)C(CC(C)C)NC(=O)OCc1ccccc1 (stereo not drawn) [MG-115] (Cbz-Leu-Leu-[Nva]-aldehyde; configuration not given here)	1 (Compounds with IC50 < 10 µM or with a percentage of enzyme inhibition >50% at 10 µM were labelled as ACTIVE)
CC(C)C[C@@H](C=O)NC(=O)[C@H](CC(C)C)NC(=O)[C@H](CC(C)C)NC(=O)OCc1ccccc1 [MG-132] (Cbz-Leu-Leu-Leu-aldehyde)	1 (Compounds with IC50 < 10 µM or with a percentage of enzyme inhibition >50% at 10 µM were labelled as ACTIVE)
NS(=O)(=O)CCc1ccccc1CN1CCN(C(=O)CCl)CC1 [MIH-UNI-e573136b-5]	1 (Compounds with IC50 < 10 µM or with a percentage of enzyme inhibition >50% at 10 µM were labelled as ACTIVE)
O=C(O)CC[C@H]1CC[C@@](c2cc(F)ccc2F)(S(=O)(=O)c2ccc(Cl)cc2)CC1 [MK-0752]	0 (compounds with IC50 > 20 μM, percentage inhibition <80% at 20 µM or 50 μM, or percentage enzyme inhibition <50% at 10 µM were labelled as INACTIVE)
CC(C)C[C@H](NC(=O)CNC(=O)c1cc(Cl)ccc1Cl)B(O)O [MLN2238]	0 (compounds with IC50 > 20 μM, percentage inhibition <80% at 20 µM or 50 μM, or percentage enzyme inhibition <50% at 10 µM were labelled as INACTIVE)
CCCCCOc1ccc(-c2cc(-c3ccc(C(=O)N[C@H]4C[C@@H](O)[C@@H](O)NC(=O)[C@@H]5[C@@H](O)[C@@H](C)CN5C(=O)[C@H]([C@H](O)CC(N)=O)NC(=O)[C@H]([C@H](O)[C@@H](O)c5ccc(O)c(OS(=O)(=O)O)c5)NC(=O)[C@@H]5C[C@@H](O)CN5C(=O)[C@H]([C@@H](C)O)NC4=O)cc3)no2)cc1 [Micafungin] (X1-[Orn(4R-OH,5R-OH)]T[Hyp][hTyr(3S-OH,4S-OH,3'-OSO3H)][Gln(3R-OH)][Pro(3S-OH,4S-Me)]; lactam 1-C)	0 (compounds with IC50 > 20 μM, percentage inhibition <80% at 20 µM or 50 μM, or percentage enzyme inhibition <50% at 10 µM were labelled as INACTIVE)
O=c1c(O)c(-c2cc(O)c(O)c(O)c2)oc2cc(O)cc(O)c12 [Myricetin]	1 (Compounds with IC50 < 10 µM or with a percentage of enzyme inhibition >50% at 10 µM were labelled as ACTIVE)
COc1ccc2c(c1)CN(C(=O)CCl)C(c1ccccc1)C2 (centres unmarked) [NAU-LAT-64f4b287-4]	1 (Compounds with IC50 < 10 µM or with a percentage of enzyme inhibition >50% at 10 µM were labelled as ACTIVE)
Cc1cc(Cl)cc(CC2CCN(C(=O)CCl)CC2)c1 [NIR-THE-0d6461ce-8]	1 (Compounds with IC50 < 10 µM or with a percentage of enzyme inhibition >50% at 10 µM were labelled as ACTIVE)
Nc1cccc(C2CN(C(=O)CCl)Cc3ccccc32)c1 (centres unmarked) [NIR-THE-c331be7a-1]	1 (Compounds with IC50 < 10 µM or with a percentage of enzyme inhibition >50% at 10 µM were labelled as ACTIVE)
N#Cc1cccc(C2CN(C(=O)CCl)Cc3ccccc32)c1 (centres unmarked) [NIR-THE-c331be7a-2]	1 (Compounds with IC50 < 10 µM or with a percentage of enzyme inhibition >50% at 10 µM were labelled as ACTIVE)
Cc1cccc(C2CN(C(=O)CCl)Cc3ccccc32)c1 (centres unmarked) [NIR-THE-c331be7a-6]	1 (Compounds with IC50 < 10 µM or with a percentage of enzyme inhibition >50% at 10 µM were labelled as ACTIVE)
N=C(N)c1ccc2cc(OC(=O)c3ccc(N=C(N)N)cc3)ccc2c1 [Nafamostat]	0 (compounds with IC50 > 20 μM, percentage inhibition <80% at 20 µM or 50 μM, or percentage enzyme inhibition <50% at 10 µM were labelled as INACTIVE)
CCCC[C@H](NC(=O)[C@@H]1[C@@H]2[C@H](CN1C(=O)[C@@H](NC(=O)NC1(CS(=O)(=O)C(C)(C)C)CCCCC1)C(C)(C)C)C2(C)C)C(=O)C(=O)NC1CC1 [Narlaprevir]	1 (Compounds with IC50 < 10 µM or with a percentage of enzyme inhibition >50% at 10 µM were labelled as ACTIVE)
Cc1c(O)cccc1C(=O)N[C@@H](CSc1ccccc1)[C@H](O)CN1C[C@H]2CCCC[C@H]2C[C@H]1C(=O)NC(C)(C)C [Nelfinavir]	0 (compounds with IC50 > 20 μM, percentage inhibition <80% at 20 µM or 50 μM, or percentage enzyme inhibition <50% at 10 µM were labelled as INACTIVE)
COc1ccc(CC(NC(=O)C(C)NC(=O)CN2CCOCC2)C(=O)NC(Cc2ccccc2)C(=O)C2(C)CO2)cc1 (centres unmarked) [ONX-0914]	0 (compounds with IC50 > 20 μM, percentage inhibition <80% at 20 µM or 50 μM, or percentage enzyme inhibition <50% at 10 µM were labelled as INACTIVE)
CC(C)(F)C[C@H](N[C@@H](c1ccc(-c2ccc(S(C)(=O)=O)cc2)cc1)C(F)(F)F)C(=O)NC1(C#N)CC1 [Odanacatib]	0 (compounds with IC50 > 20 μM, percentage inhibition <80% at 20 µM or 50 μM, or percentage enzyme inhibition <50% at 10 µM were labelled as INACTIVE)
